From patent US11643438B2, “Antimicrobial peptides and methods of use” (priority 2018, dated 2023)
Converted amounts (≈) assume the structure as drawn. *1 amine or outer side, *2 acyl side, *3 side chain or, on linkers, in order; H or OH if unused. Where a SMILES comes first, the peptide text is derived from it. [ ]: non-standard residue; d: D form. X2 = CC[C@H](C)C[C@H](C)C[C@H](C)C[C@H](N[*:1])C(=O)[*:2]; X1 = CC[C@@H](C)[C@@H](O[*:1])C(=O)[*:2]; NMeVal(β-OH) = CN[C@H](C(=O)O)C(C)(C)O; aIle = CC[C@@H](C)[C@H](N)C(=O)O; NMeV = CN[C@H](C(=O)O)C(C)C; Sar = CNCC(=O)O

Assays:
[1] = system: Aspergillus fumigatus ATCC MYA-3627; assay: Effect of serum on antifungal activity (MIC80); assay type: cell-based
Experimental: (§1) Given that compound 1 contains a large number of hydrophobic amino acid residues that might promote non-specific protein binding resulting in a loss of in vivo activity, the efficacy of the compound was tested in the presence of blood serum against four fungal pathogens (C. albicans, C. auris, C. neoformans, and A. fumigatus) (Table 3).

[2] = system: Candida albicans SC5314; assay: Effect of serum on antifungal activity (MIC80); assay type: cell-based
Experimental: as §1

[3] = system: Candida auris 381; assay: Effect of serum on antifungal activity (MIC80); assay type: cell-based
Experimental: as §1

[4] = system: Cryptococcus neoformans H99; assay: Effect of serum on antifungal activity (MIC80); assay type: cell-based
Experimental: as §1

[5] = system: Candida albicans 5; assay: Antifungal MIC80 assay, clinical yeast isolates
[6] = system: Candida albicans 8; assay: Antifungal MIC80 assay, clinical yeast isolates
[7] = system: Candida albicans 14; assay: Antifungal MIC80 assay, clinical yeast isolates
[8] = system: Candida albicans 21; assay: Antifungal MIC80 assay, clinical yeast isolates
[9] = system: Candida albicans 24; assay: Antifungal MIC80 assay, clinical yeast isolates
[10] = system: Candida albicans 30; assay: Antifungal MIC80 assay, clinical yeast isolates
[11] = system: Candida glabrata 11; assay: Antifungal MIC80 assay, clinical yeast isolates
[12] = system: Candida glabrata 17; assay: Antifungal MIC80 assay, clinical yeast isolates
[13] = system: Candida glabrata 22; assay: Antifungal MIC80 assay, clinical yeast isolates
[14] = system: Candida parapsilosis 28; assay: Antifungal MIC80 assay, clinical yeast isolates
[15] = system: Candida kefyr 12; assay: Antifungal MIC80 assay, clinical yeast isolates
[16] = system: Candida krusei 25; assay: Antifungal MIC80 assay, clinical yeast isolates
[17] = system: Candida auris 383; assay: Antifungal MIC80 assay, clinical yeast isolates
[18] = system: Candida auris 387; assay: Antifungal MIC80 assay, clinical yeast isolates
[19] = system: Candida auris 389; assay: Antifungal MIC80 assay, clinical yeast isolates
[20] = system: Candida auris 390; assay: Antifungal MIC80 assay, clinical yeast isolates
[21] = system: Candida duobushaemulonii 391; assay: Antifungal MIC80 assay, clinical yeast isolates
[22] = system: Candida duobushaemulonii 392; assay: Antifungal MIC80 assay, clinical yeast isolates
[23] = system: Candida haemulonii 393; assay: Antifungal MIC80 assay, clinical yeast isolates
[24] = system: Kodameae ohmeri 396; assay: Antifungal MIC80 assay, clinical yeast isolates
[25] = system: Candida krusei 397; assay: Antifungal MIC80 assay, clinical yeast isolates
[26] = system: Candida parapsilosis ATCC 22019 (Y-12969); assay: Antifungal MIC80/MFC assay, fungal pathogen panel
[27] = system: Cryptococcus neoformans H99; assay: Antifungal MIC80/MFC assay, fungal pathogen panel
[28] = system: Aspergillus fumigatus MYA 3627; assay: Antifungal MIC80/MFC assay, fungal pathogen panel; conditions: MYA3627
[29] = system: Aspergillus fumigatus NRRL5109; assay: Antifungal MIC80/MFC assay, fungal pathogen panel
[30] = system: Rhizopus oryzae FGSC 9543; assay: Antifungal MIC80/MFC assay, fungal pathogen panel
[31] = system: Fusarium solani 243G2; assay: Antifungal MIC80/MFC assay, fungal pathogen panel
[32] = system: Paecilomyces lilacinus 165E10; assay: Antifungal MIC80/MFC assay, fungal pathogen panel
[33] = system: C. albicans SC5314 Flu^R; assay: Ex vivo model of fungal keratitis (porcine cornea); parameters: species or system Candida albicans
[34] = 0% serum (v/v) in growth medium
[35] = 5% serum (v/v) in growth medium
[36] = 10% serum (v/v) in growth medium
[37] = Candida parapsilosis ATCC 22019 (Y-12969)
[38] = Lodderomyces parapsilosis, ATCC22019
[39] = Purpureocillium lilacinum, 165E10

## C[C@@H]1[C@H](O)[C@@H](C)/C=C/C=C/C=C/C=C/C=C/C=C/C=C/[C@H](O[C@@H]2O[C@H](C)[C@@H](O)[C@H](N)[C@@H]2O)C[C@@H]2O[C@](O)(C[C@@H](O)C[C@@H](O)[C@H](O)CC[C@@H](O)C[C@@H](O)CC(=O)O[C@H]1C)C[C@H](O)[C@H]2C(=O)O [AMB, amphotericin B]
[1]; [34]
  MIC80: 2.5 µM (≈ 2.31 µg/mL)
[1]; [35]
  MIC80: <0.07 µM
[1]; [36]
  MIC80: 0.15 µM (≈ 0.139 µg/mL)
[2]; Candida albicans SC5314, 0% serum (v/v) in growth medium
  MIC80: 0.6 µM (≈ 0.554 µg/mL)
[2]; Candida albicans SC5314, 5% serum (v/v) in growth medium
  MIC80: <0.15 µM
[2]; Candida albicans SC5314, 10% serum (v/v) in growth medium
  MIC80: <0.15 µM
[3]; [34]
  MIC80: 2.5 µM (≈ 2.31 µg/mL)
[3]; [35]
  MIC80: <0.15 µM
[3]; [36]
  MIC80: 0.3 µM (≈ 0.277 µg/mL)
[4]; Cryptococcus neoformans H99, 0% serum (v/v) in growth medium
  MIC80: 1.25 µM (≈ 1.16 µg/mL)
[4]; Cryptococcus neoformans H99, 5% serum (v/v) in growth medium
  MIC80: <0.15 µM
[4]; Cryptococcus neoformans H99, 10% serum (v/v) in growth medium
  MIC80: <0.15 µM
[5]
  MIC80: 0.6 µM (≈ 0.554 µg/mL)
[6]
  MIC80: 0.6 µM (≈ 0.554 µg/mL)
[7]
  MIC80: 1.25 µM (≈ 1.16 µg/mL)
[8]
  MIC80: 0.6 µM (≈ 0.554 µg/mL)
[9]
  MIC80: 1.25 µM (≈ 1.16 µg/mL)
[10]
  MIC80: 2.5 µM (≈ 2.31 µg/mL)
[11]; Candida glabrata 11
  MIC80: 0.3 µM (≈ 0.277 µg/mL)
[12]; Candida glabrata 17
  MIC80: 0.3 µM (≈ 0.277 µg/mL)
[13]; Candida glabrata 22
  MIC80: 0.3 µM (≈ 0.277 µg/mL)
[14]; Candida parapsilosis 28
  MIC80: 1.25 µM (≈ 1.16 µg/mL)
[15]; Candida kefyr 12
  MIC80: 0.3 µM (≈ 0.277 µg/mL)
[16]; Candida krusei 25
  MIC80: 1.25 µM (≈ 1.16 µg/mL)
[17]; Candida auris 383, multidrug-resistant
  MIC80: 2.5 µM (≈ 2.31 µg/mL)
[18]; Candida auris 387, multidrug-resistant
  MIC80: 2.5 µM (≈ 2.31 µg/mL)
[19]; Candida auris 389, multidrug-resistant
  MIC80: 5 µM (≈ 4.62 µg/mL)
[20]; Candida auris 390, multidrug-resistant
  MIC80: 2.5 µM (≈ 2.31 µg/mL)
[21]; Candida duobushaemulonii 391, multidrug-resistant
  MIC80: 5 µM (≈ 4.62 µg/mL)
[22]; Candida duobushaemulonii 392, multidrug-resistant
  MIC80: 5 µM (≈ 4.62 µg/mL)
[23]; Candida haemulonii 393, multidrug-resistant
  MIC80: 5 µM (≈ 4.62 µg/mL)
[24]; Kodameae ohmeri 396, multidrug-resistant
  MIC80: 1.25 µM (≈ 1.16 µg/mL)
[25]; Candida krusei 397, multidrug-resistant
  MIC80: 2.5 µM (≈ 2.31 µg/mL)
[26]; [37]
  MFC: 5 µM (≈ 4.62 µg/mL)
  MIC80: 1.25 µM (≈ 1.16 µg/mL)
[27]
  MFC: 2.5 µM (≈ 2.31 µg/mL)
  MIC80: 1.25 µM (≈ 1.16 µg/mL)
[28]
  MFC: 2.5 µM (≈ 2.31 µg/mL)
  MIC80: 2.5 µM (≈ 2.31 µg/mL)
[29]
  MFC: 5 µM (≈ 4.62 µg/mL)
  MIC80: 2.5 µM (≈ 2.31 µg/mL)
[30]; Rhizopus oryzae FGSC 9543
  MFC: 0.3 µM (≈ 0.277 µg/mL)
  MIC80: 0.3 µM (≈ 0.277 µg/mL)
[31]
  MFC: 1.25 µM (≈ 1.16 µg/mL)
  MIC80: 1.25 µM (≈ 1.16 µg/mL)
[32]; Paecilomyces lilacinus 165E10
  MFC: >10 µM
  MIC80: >10 µM

## CC[C@H](C)C[C@H](C)C[C@H](C)C[C@@H]1NC(=O)[C@H](C(C)C)N(C)C(=O)[C@@H]([C@H](C)CC)OC(=O)[C@H](C(C)(C)O)N(C)C(=O)[C@H](CC(C)C)NC(=O)[C@H](C(C)C)N(C)C(=O)[C@H]([C@H](C)CC)NC(=O)[C@@H]2CCCN2C(=O)CN(C)C1=O [Compound 1, persephacin] (cyclo(L[NMeVal(β-OH)][X1][NMeV][X2][Sar]P[aIle][NMeV]))
[1]; [34]
  MIC80: 2.5 µM (≈ 2.69 µg/mL)
[1]; [35]
  MIC80: 2.5 µM (≈ 2.69 µg/mL)
[1]; [36]
  MIC80: 2.5 µM (≈ 2.69 µg/mL)
[2]; Candida albicans, SC5314, Candida albicans SC5314, 0% serum (v/v) in growth medium
  MIC80: 0.6 µM (≈ 0.645 µg/mL)
[2]; Candida albicans, SC5314, Candida albicans SC5314, 5% serum (v/v) in growth medium
  MIC80: 0.15 µM (≈ 0.161 µg/mL)
[2]; Candida albicans, SC5314, Candida albicans SC5314, 10% serum (v/v) in growth medium
  MIC80: 0.3 µM (≈ 0.323 µg/mL)
[3]; [35]
  MIC80: 1.25 µM (≈ 1.34 µg/mL)
[3]; [36]
  MIC80: 1.25 µM (≈ 1.34 µg/mL)
[3]; Candidozyma auris, 0% serum (v/v) in growth medium
  MIC80: 1.25 µM (≈ 1.34 µg/mL)
[4]; Cryptococcus neoformans, H99, Cryptococcus neoformans H99, 0% serum (v/v) in growth medium
  MIC80: 0.6 µM (≈ 0.645 µg/mL)
[4]; Cryptococcus neoformans, H99, Cryptococcus neoformans H99, 5% serum (v/v) in growth medium
  MIC80: < 0.15 µM
[4]; Cryptococcus neoformans, H99, Cryptococcus neoformans H99, 10% serum (v/v) in growth medium
  MIC80: < 0.15 µM
[33]; C. albicans SC5314 Flu^R, 118A 0.1% (1 mg/ml), natamycin 5% (50 mg/ml), fluconazole 2% (20 mg/ml)
  CFU: 0 CFU
[33]; Candida albicans SC5314FluR, 50-1,000 μg/mL, FIG. 9
  effect of different doses on fungal growth: effective at reducing or eliminating the fungus
[5]
  MIC80: 1.25 µM (≈ 1.34 µg/mL)
[6]
  MIC80: 0.6 µM (≈ 0.645 µg/mL)
[7]
  MIC80: 0.6 µM (≈ 0.645 µg/mL)
[8]
  MIC80: 1.25 µM (≈ 1.34 µg/mL)
[9]
  MIC80: 0.6 µM (≈ 0.645 µg/mL)
[10]
  MIC80: 5 µM (≈ 5.38 µg/mL)
[11]; Nakaseomyces glabratus, 11
  MIC80: 0.6 µM (≈ 0.645 µg/mL)
[12]; Nakaseomyces glabratus, 17
  MIC80: 0.15 µM (≈ 0.161 µg/mL)
[13]; Nakaseomyces glabratus, 22
  MIC80: 0.6 µM (≈ 0.645 µg/mL)
[14]; Lodderomyces parapsilosis, 28
  MIC80: 2.5 µM (≈ 2.69 µg/mL)
[15]; Kluyveromyces marxianus, 12
  MIC80: 1.25 µM (≈ 1.34 µg/mL)
[16]; Pichia kudriavzevii, 25
  MIC80: 1.25 µM (≈ 1.34 µg/mL)
[17]; Candidozyma auris, 383
  MIC80: 2.5 µM (≈ 2.69 µg/mL)
[18]; Candidozyma auris, 387
  MIC80: 2.5 µM (≈ 2.69 µg/mL)
[19]; Candidozyma auris, 389
  MIC80: 2.5 µM (≈ 2.69 µg/mL)
[20]; Candidozyma auris, 390
  MIC80: 2.5 µM (≈ 2.69 µg/mL)
[21]; Candidozyma duobushaemuli, 391
  MIC80: 2.5 µM (≈ 2.69 µg/mL)
[22]; Candidozyma duobushaemuli, 392
  MIC80: 2.5 µM (≈ 2.69 µg/mL)
[23]; Candidozyma haemuli, 393
  MIC80: 0.3 µM (≈ 0.323 µg/mL)
[24]; 396
  MIC80: 2.5 µM (≈ 2.69 µg/mL)
[25]; Pichia kudriavzevii, 397
  MIC80: 2.5 µM (≈ 2.69 µg/mL)
[26]; [38]
  MFC: 2.5 µM (≈ 2.69 µg/mL)
  MIC80: 2.5 µM (≈ 2.69 µg/mL)
[27]
  MFC: 2.5 µM (≈ 2.69 µg/mL)
  MIC80: 0.6 µM (≈ 0.645 µg/mL)
[28]
  MFC: 5 µM (≈ 5.38 µg/mL)
  MIC80: 2.5 µM (≈ 2.69 µg/mL)
[29]
  MFC: 5 µM (≈ 5.38 µg/mL)
  MIC80: 2.5 µM (≈ 2.69 µg/mL)
[30]; Rhizopus arrhizus, FGSC9543
  MFC: > 10 µM
  MIC80: > 10 µM
[31]
  MFC: 2.5 µM (≈ 2.69 µg/mL)
  MIC80: 1.25 µM (≈ 1.34 µg/mL)
[32]; [39]
  MFC: > 10 µM
  MIC80: 2.5 µM (≈ 2.69 µg/mL)
